The subject of the experiment is SYO-1. The experiment can be described thus: relative viability vs DMSO control (72 h) (fraction); higher = more viable cells. Summed up: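 Sarcoma cell lines in 384-well plates, seeded to reach 80–90% confluence, were given compound after 24 h and kept 72 h at 37 °C, 5% CO2, with 0.1% DMSO vehicle and a 5 µM positive control. Relative viability came from ATPLite as percent growth, averaged over up to triplicate wells. On the rescaled values, 1 equals full and 0 equals none.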

SMILES strings stand for the structures. Structures can show the parent of a compound that is named as a salt. ± gives the standard deviation of the averaged measurements.

On to `Cc1ccc(NC(=O)c2ccc(CN3CCN(C)CC3)cc2)cc1Nc1nc(-c2cccnc2)cs1` [Masitinib], for which the relative viability is 1.04 ± 0.023 (0.00017 µM); 1.02 ± 0.02 (0.00051 µM); 1.01 ± 0.027 (0.00152 µM); 1.01 ± 0.026 (0.00457 µM); 0.974 ± 0.026 (0.01372 µM); 0.916 ± 0.039 (0.04115 µM). Also, the relative viability by setting is: (0.1235 µM) 0.801 ± 0.021; (0.3704 µM) 0.676 ± 0.032; (1.111 µM) 0.553 ± 0.038; (3.333 µM) 0.242 ± 0.033; (10 µM) -0.0235 ± 0.0061.
Consider `Cc1cnc(Nc2ccc(OCCN3CCCC3)cc2)nc1Nc1cccc(S(=O)(=O)NC(C)(C)C)c1` [Fedratinib], for which the relative viability runs as follows: (0.00017 µM) 0.982 ± 0.04; (0.00051 µM) 0.943 ± 0.078; (0.00152 µM) 0.941 ± 0.09; (0.00457 µM) 0.933 ± 0.037; (0.01372 µM) 0.898 ± 0.053; (0.04115 µM) 0.843 ± 0.027. Moreover, the relative viability by setting is: (0.1235 µM) 0.748 ± 0.066; (0.3704 µM) 0.496 ± 0.052; (1.111 µM) 0.132 ± 0.0092; (3.333 µM) -0.0159 ± 0.0034; (10 µM) -0.0172 ± 0.0037.
Consider `C[C@@H](c1ccc2nccn2c1)n1nnc2ncc(-c3cnn(C)c3)nc21` [Volitinib], for which the relative viability (0.00017 µM) came out at 0.96 ± 0.038; the relative viability (0.00051 µM) came out at 0.999 ± 0.065; the relative viability (0.00152 µM) stood at 1 ± 0.025; the relative viability (0.00457 µM) was 0.979 ± 0.03; the relative viability (0.01372 µM) was 0.985 ± 0.024; the relative viability (0.04115 µM) came to 0.992 ± 0.032. Further, the relative viability turned out to be 1.01 ± 0.087 (0.1235 µM); 0.98 ± 0.051 (0.3704 µM); 0.996 ± 0.058 (1.111 µM); 0.977 ± 0.085 (3.333 µM); 1.03 ± 0.047 (10 µM).
Take `COc1cccc2c1C(=O)c1c(O)c3c(c(O)c1C2=O)C[C@@](O)(C(=O)CO)C[C@@H]3O[C@H]1C[C@H](N)[C@H](O)[C@H](C)O1` [Doxorubicin Hydrochloride]: the relative viability turned out to be 0.967 ± 0.064 (0.00017 µM); 0.938 ± 0.048 (0.00051 µM); 0.899 ± 0.054 (0.00152 µM); 0.818 ± 0.06 (0.00457 µM); 0.549 ± 0.038 (0.01372 µM); 0.29 ± 0.025 (0.04115 µM). In addition, the relative viability is, setting by setting: (0.1235 µM) 0.175 ± 0.035; (0.3704 µM) 0.127 ± 0.015; (1.111 µM) 0.0941 ± 0.01; (3.333 µM) 0.0937 ± 0.025; (10 µM) 0.0765 ± 0.011.
As to `CCN1CCN(Cc2ccc(Nc3ncc(F)c(-c4cc(F)c5nc(C)n(C(C)C)c5c4)n3)nc2)CC1` [Abemaciclib], the relative viability came out at 0.953 ± 0.047 (0.00017 µM); 0.936 ± 0.043 (0.00051 µM); 0.925 ± 0.029 (0.00152 µM); 0.905 ± 0.051 (0.00457 µM); 0.849 ± 0.059 (0.01372 µM); 0.775 ± 0.064 (0.04115 µM). The relative viability worked out at 0.657 ± 0.051 (0.1235 µM); 0.519 ± 0.039 (0.3704 µM); 0.461 ± 0.015 (1.111 µM); 0.353 ± 0.059 (3.333 µM); 0.0228 ± 0.055 (10 µM).
For the compound `C=CC(=O)N1CCC([C@@H]2CCNc3c(C(N)=O)c(-c4ccc(Oc5ccccc5)cc4)nn32)CC1` [Zanubrutinib], the relative viability by setting is: (0.00017 µM) 0.982 ± 0.032; (0.00051 µM) 0.978 ± 0.025; (0.00152 µM) 0.976 ± 0.018; (0.00457 µM) 0.979 ± 0.018; (0.01372 µM) 0.984 ± 0.015; (0.04115 µM) 0.9556 ± 0.0067. The compound also had a relative viability (0.1235 µM) of 0.967 ± 0.018; a relative viability (0.3704 µM) of 0.959 ± 0.06; a relative viability (1.111 µM) of 0.97 ± 0.061; a relative viability (3.333 µM) of 0.884 ± 0.076; a relative viability (10 µM) of 0.763 ± 0.053.
For the compound `COc1cc2/c(=N/c3ccc(Br)cc3F)nc[nH]c2cc1OCC1CCN(C)CC1` [Vandetanib], the relative viability was 0.926 ± 0.02 (0.00017 µM); 0.924 ± 0.043 (0.00051 µM); 0.927 ± 0.028 (0.00152 µM); 0.899 ± 0.067 (0.00457 µM); 0.889 ± 0.041 (0.01372 µM); 0.848 ± 0.034 (0.04115 µM). In addition, the relative viability was 0.793 ± 0.011 (0.1235 µM); 0.65 ± 0.015 (0.3704 µM); 0.4003 ± 0.0022 (1.111 µM); 0.0998 ± 0.016 (3.333 µM); -0.00567 ± 0.0018 (10 µM).
Turning to `C[C@@H]1COCCN1c1cc(-c2ccnn2C)c2ccnc(-c3ccn[nH]3)c2n1`, the relative viability runs as follows: (0.00017 µM) 0.9163 ± 0.0052; (0.00051 µM) 0.928 ± 0.028; (0.00152 µM) 0.911 ± 0.043; (0.00457 µM) 0.903 ± 0.06; (0.01372 µM) 0.799 ± 0.07; (0.04115 µM) 0.627 ± 0.044. Moreover, the relative viability runs as follows: (0.1235 µM) 0.415 ± 0.03; (0.3704 µM) 0.286 ± 0.018; (1.111 µM) 0.199 ± 0.0027; (3.333 µM) 0.116 ± 0.0028; (10 µM) 0.0976 ± 0.0066.
Consider `C[C@]1(O)C[C@@H](c2nc(-c3ccc4ccc(-c5ccccc5)nc4c3)c3c(N)nccn32)C1` [Linsitinib], for which the relative viability reads like this: (0.00017 µM) 1.01 ± 0.043; (0.00051 µM) 1.01 ± 0.013; (0.00152 µM) 0.97 ± 0.046; (0.00457 µM) 0.969 ± 0.018; (0.01372 µM) 0.922 ± 0.035; (0.04115 µM) 0.87 ± 0.083. In addition, the relative viability is, setting by setting: (0.1235 µM) 0.857 ± 0.035; (0.3704 µM) 0.823 ± 0.012; (1.111 µM) 0.833 ± 0.04; (3.333 µM) 0.734 ± 0.025; (10 µM) 0.57 ± 0.028.
As for `COc1c(OCCCN2CCOCC2)ccc2c1N=C(NC(=O)c1cnc(N)nc1)N1CCN=C21` [Copanlisib], the relative viability stood at 1 ± 0.011 (0.00017 µM); 0.945 ± 0.023 (0.00051 µM); 0.911 ± 0.051 (0.00152 µM); 0.79 ± 0.06 (0.00457 µM); 0.754 ± 0.041 (0.01372 µM); 0.693 ± 0.02 (0.04115 µM). The relative viability amounted to 0.651 ± 0.052 (0.1235 µM); 0.52 ± 0.02 (0.3704 µM); 0.374 ± 0.012 (1.111 µM); 0.171 ± 0.0084 (3.333 µM); 0.0829 ± 0.006 (10 µM).
Take `CN1CCN(c2ccc3nc(-c4c(N)c5c(F)cccc5[nH]c4=O)[nH]c3c2)CC1` [Dovitinib]: the relative viability was found to be 1.04 ± 0.049 (0.00017 µM); 1.038 ± 0.0075 (0.00051 µM); 0.992 ± 0.037 (0.00152 µM); 0.998 ± 0.03 (0.00457 µM); 0.974 ± 0.014 (0.01372 µM); 0.927 ± 0.035 (0.04115 µM). Also, the relative viability runs as follows: (0.1235 µM) 0.833 ± 0.0092; (0.3704 µM) 0.556 ± 0.012; (1.111 µM) 0.388 ± 0.025; (3.333 µM) 0.17 ± 0.023; (10 µM) -0.0198 ± 0.0062.
`COCc1c(-c2cc3cc(C)cc(OC)c3s2)c2c(N)ncnn2c1CN1CCNC(=O)C1` [Rogaratinib]: the relative viability was found to be 1.01 ± 0.048 (0.00017 µM); 0.974 ± 0.054 (0.00051 µM); 0.952 ± 0.059 (0.00152 µM); 0.924 ± 0.067 (0.00457 µM); 0.84 ± 0.059 (0.01372 µM); 0.765 ± 0.082 (0.04115 µM). In addition, the relative viability reads like this: (0.1235 µM) 0.634 ± 0.05; (0.3704 µM) 0.613 ± 0.071; (1.111 µM) 0.6 ± 0.057; (3.333 µM) 0.568 ± 0.056; (10 µM) 0.464 ± 0.06.
Consider `CN1CCC(COc2cnc(-c3cccc(Cn4nc(-c5cccc(C#N)c5)ccc4=O)c3)nc2)CC1` [Tepotinib], for which the relative viability is 1 ± 0.042 (0.00017 µM); 0.983 ± 0.042 (0.00051 µM); 0.974 ± 0.063 (0.00152 µM); 0.919 ± 0.061 (0.00457 µM); 0.946 ± 0.05 (0.01372 µM); 0.912 ± 0.038 (0.04115 µM). This compound also had a relative viability (0.1235 µM) of 0.916 ± 0.031; a relative viability (0.3704 µM) of 0.931 ± 0.06; a relative viability (1.111 µM) of 0.884 ± 0.037; a relative viability (3.333 µM) of 0.824 ± 0.033; a relative viability (10 µM) of 0.608 ± 0.055.

These data come from the supplement of paper PMC10883282.
